Results from patent US8802597B2, “Herbicidal pyrimidines” (E I du Pont de Nemours and Company, priority 2003, dated 2014).

How the values were obtained:
Assay type in all cases: in vivo
[1] = test system: barnyardgrass (Echinochloa crus-galli); assay: Test A pre/postemergence
Method in brief: (§1)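 Visual injury scored 0–100 (0 = no effect, 100 = complete control) against untreated controls after about ten days in the greenhouse. Compounds, formulated in non-phytotoxic solvent plus surfactant, were applied preemergence as a directed soil spray and postemergence at the 1- to 2-leaf stage (2–10 cm).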

[2] = test system: crabgrass (Digitaria sanguinalis); assay: Test A pre/postemergence
Method in brief: as §1

[3] = test system: giant foxtail (Setaria faberi); assay: Test A pre/postemergence
Method in brief: as §1

[4] = test system: morningglory (Ipomoea spp.); assay: Test A pre/postemergence
Method in brief: as §1

[5] = test system: redroot pigweed (Amaranthus retroflexus); assay: Test A pre/postemergence
Method in brief: as §1

[6] = test system: velvetleaf (Abutilon theophrasti); assay: Test A pre/postemergence
Method in brief: as §1

[7] = test system: giant foxtail (Setaria faberii); assay: Test C pre/postemergence; settings: for Plant response rating, Foxtail, Giant: Preemergence
Method in brief: (§2)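 Greenhouse pot test: seeds treated preemergence, or plants at 2–18 cm (1- to 4-leaf stage) treated postemergence, with compound in non-phytotoxic solvent plus surfactant. Visual rating versus untreated controls after 12–14 days, scale 0 (no effect) to 100 (complete control); dash means not tested.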

[8] = test system: goosegrass (Eleusine indica); assay: Test C pre/postemergence; settings: for Plant response rating, Goosegrass: Preemergence
Method in brief: as §2

[9] = test system: lambsquarters (Chenopodium album); assay: Test C pre/postemergence; settings: for Plant response rating, Lambsquarters: Preemergence
Method in brief: as §2

[10] = test system: velvetleaf (Abutilon theophrasti); assay: Test C pre/postemergence; settings: for Plant response rating, Velvetleaf: Preemergence, scale 0 to 100, 0 no effect, 100 complete control
Method in brief: as §2

[11] = test system: chickweed (Stellaria media); assay: Test C postemergence
Method in brief: as §2

[12] = Postemergence, 125 g ai/ha, 0 to 100 scale (0 no effect, 100 complete control)
[13] = Postemergence, 500 g ai/ha, 0 to 100 scale (0 no effect, 100 complete control)
[14] = Preemergence, 125 g ai/ha, 0 to 100 scale where 0 is no effect and 100 is complete control, approximately ten days
[15] = Preemergence, 500 g ai/ha, 0 to 100 scale where 0 is no effect and 100 is complete control, approximately ten days
[16] = Postemergence, 125 g ai/ha, scale 0 to 100 (0 no effect, 100 complete control)
[17] = 16 g ai/ha, scale 0 to 100, 0 no effect, 100 complete control
[18] = 31 g ai/ha, scale 0 to 100, 0 no effect, 100 complete control
[19] = 62 g ai/ha, scale 0 to 100, 0 no effect, 100 complete control

CCCCOC(=O)c1nc(C2CC2)nc(N)c1Cl [Compound 76]
Plant response rating, Barnyardgrass [1, 12]: 90
Plant response rating, Barnyardgrass [1, 13]: 90
Plant response rating, Barnyardgrass [1, 14]: 75
Plant response rating, Barnyardgrass [1, 15]: 90
Plant response rating, Crabgrass [2, 12]: 45
Plant response rating, Crabgrass [2, 13]: 70
Plant response rating, Crabgrass [2, 14]: 30
Plant response rating, Crabgrass [2, 15]: 75
Plant response rating, Foxtail, Giant [3, 12]: 90
Plant response rating, Foxtail, Giant [3, 13]: 90
Plant response rating, Foxtail, Giant [3, 14]: 70
Plant response rating, Foxtail, Giant [3, 15]: 85
Plant response rating, Morningglory [4, 12]: 90
Plant response rating, Morningglory [4, 13]: 95
Plant response rating, Morningglory [4, 14]: 100
Plant response rating, Morningglory [4, 15]: 100
Plant response rating, Pigweed [5, 12]: 85
Plant response rating, Pigweed [5, 13]: 95
Plant response rating, Pigweed [5, 14]: 80
Plant response rating, Pigweed [5, 15]: 90
Plant response rating, Velvetleaf [6, 12]: 80
Plant response rating, Velvetleaf [6, 13]: 100
Plant response rating, Velvetleaf [6, 14]: 90
Plant response rating, Velvetleaf [6, 15]: 100
Plant response rating (scale of 0 to 100), Foxtail, Giant ([7]; Postemergence, 16 g ai/ha): 15
Plant response rating (scale of 0 to 100), Foxtail, Giant ([7]; Postemergence, 31 g ai/ha): 25
Plant response rating (scale of 0 to 100), Foxtail, Giant ([7]; Postemergence, 62 g ai/ha): 55
Foxtail, Giant plant response rating [7, 16]: 85
Plant response rating, Foxtail, Giant [7, 17]: 0
Plant response rating, Foxtail, Giant [7, 18]: 0
Plant response rating, Foxtail, Giant [7, 19]: 0
Plant response rating, Foxtail, Giant ([7]; 125 g ai/ha, scale 0 to 100): 10
Plant response rating (scale of 0 to 100), Goosegrass ([8]; Postemergence, 16 g ai/ha): 30
Plant response rating (scale of 0 to 100), Goosegrass ([8]; Postemergence, 31 g ai/ha): 45
Plant response rating (scale of 0 to 100), Goosegrass ([8]; Postemergence, 62 g ai/ha): 45
Goosegrass plant response rating [8, 16]: 50
Plant response rating, Goosegrass [8, 17]: 0
Plant response rating, Goosegrass [8, 18]: 0
Plant response rating, Goosegrass [8, 19]: 0
Plant response rating, Goosegrass ([8]; 125 g ai/ha, scale 0 to 100): 0
Plant response rating (scale of 0 to 100), Lambsquarters ([9]; Postemergence, 16 g ai/ha): 90
Plant response rating (scale of 0 to 100), Lambsquarters ([9]; Postemergence, 31 g ai/ha): 95
Plant response rating (scale of 0 to 100), Lambsquarters ([9]; Postemergence, 62 g ai/ha): 100
Lambsquarters plant response rating [9, 16]: 100
Plant response rating, Lambsquarters [9, 17]: 70
Plant response rating, Lambsquarters [9, 18]: 70
Plant response rating, Lambsquarters [9, 19]: 80
Plant response rating, Lambsquarters ([9]; 125 g ai/ha, scale 0 to 100): 80
Plant response rating (scale of 0 to 100), Velvetleaf ([10]; Postemergence, 16 g ai/ha): 45
Plant response rating (scale of 0 to 100), Velvetleaf ([10]; Postemergence, 31 g ai/ha): 80
Plant response rating (scale of 0 to 100), Velvetleaf ([10]; Postemergence, 62 g ai/ha): 95
Velvetleaf plant response rating [10, 16]: 95
Plant response rating, Velvetleaf ([10]; 16 g ai/ha): 30
Plant response rating, Velvetleaf ([10]; 31 g ai/ha): 40
Plant response rating, Velvetleaf ([10]; 62 g ai/ha): 70
Plant response rating (scale of 0 to 100), Chickweed ([11]; 16 g ai/ha): 35
Plant response rating (scale of 0 to 100), Chickweed ([11]; 31 g ai/ha): 45
Plant response rating (scale of 0 to 100), Chickweed ([11]; 62 g ai/ha): 70
Chickweed plant response rating ([11]; 125 g ai/ha, scale 0 to 100 (0 no effect, 100 complete control)): 95
